Drawing on patent US10189839B2, “Tricyclic imidazole compounds as inhibitors of tryptophan hydroxylase” (ACTELION PHARMACEUTICALS LTD, priority 2013, dated 2019), this text covers IC50 for 23 compounds.

The assay addresses T1, full length human TPH1 (Homo sapiens, UniProt P17752).
T1 construct: To generate the enzyme, full length human TPH1 is cloned into the plasmid pET20b(+); made in house; host or cells: E. coli
T1 sequence (P17752 1-444): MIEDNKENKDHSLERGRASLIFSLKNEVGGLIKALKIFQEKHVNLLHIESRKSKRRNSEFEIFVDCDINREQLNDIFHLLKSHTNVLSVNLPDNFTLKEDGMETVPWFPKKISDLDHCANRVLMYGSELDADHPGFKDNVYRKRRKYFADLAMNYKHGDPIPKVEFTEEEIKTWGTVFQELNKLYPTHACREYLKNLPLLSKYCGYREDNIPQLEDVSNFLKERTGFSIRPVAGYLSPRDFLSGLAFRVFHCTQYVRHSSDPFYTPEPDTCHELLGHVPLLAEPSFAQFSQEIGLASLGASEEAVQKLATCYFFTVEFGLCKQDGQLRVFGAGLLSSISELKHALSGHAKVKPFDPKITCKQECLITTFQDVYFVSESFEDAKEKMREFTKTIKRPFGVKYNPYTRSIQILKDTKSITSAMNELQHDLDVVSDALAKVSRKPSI
Kind of assay: Biochemical in vitro assay using fluorescence readout (TPH1 enzyme activity). The following applies: Table 1, mean where determined several times. A digest of the protocol: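 E. coli-expressed full-length human TPH1 (40-80 nM), affinity- and size-exclusion-purified, incubated 60 min at 15° C. in 0.1M Tris-HCl pH 7.6 with 1 mM DTT, 0.2 mg/ml catalase, 100 μM 6-methyltetrahydropterine and 40 μM L-tryptophan. 5-Hydroxy-L-tryptophan read by fluorescence (ex 300/em 540 nm) after HClO4 quench; IC50 versus vehicle, mean where repeated.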
As usually defined, the IC50 is the concentration needed to halve the response being measured. Take `Cc1ccc(C2c3c(nc4n3CCCC4)CCN2C(=O)COc2ccc(C(=O)NC3CC3)nc2Cl)c(F)c1F` (centres unmarked) [Example 1.9.8, 6-chloro-N-cyclopropyl-5-(2-(1-(2,3-difluoro-4-methylphenyl)-3,4,6,7,8,9-hexahydroimidazo[1,2-a:5,4-c′]dipyridin-2(1H)-yl)-2-oxoethoxy)picolinamide]: the IC50 amounted to 0.016 µM.

With `CCc1nc(NS(C)(=O)=O)ncc1OCC(=O)N1CCc2nc3n(c2C1c1ccc(C)c(F)c1F)CCCC3` (centres unmarked) [Example 1.9.9, N-(5-(2-(1-(2,3-difluoro-4-methylphenyl)-3,4,6,7,8,9-hexahydroimidazo[1,2-a:5,4-c′]dipyridin-2(1H)-yl)-2-oxoethoxy)-4-ethylpyrimidin-2-yl)methanesulfonamide], the IC50 amounted to 0.058 µM.

`CCc1nc(C(=O)NC2CC2)ccc1OCC(=O)N1CCc2nc3n(c2C1c1ccc(C)c(F)c1F)CCCC3` (centres unmarked) [Example 1.9.10, N-cyclopropyl-5-(2-(1-(2,3-difluoro-4-methylphenyl)-3,4,6,7,8,9-hexahydroimidazo[1,2-a:5,4-c′]dipyridin-2(1H)-yl)-2-oxoethoxy)-6-ethylpicolinamide] returned an IC50 of 0.009 µM.

`Cc1nc(C)c(C2c3c(nc4n3CCCC4)CCN2C(=O)COc2ccc(NS(C)(=O)=O)nc2Cl)s1` (centres unmarked) [Example 1.10.1, N-(6-chloro-5-(2-(1-(2,4-dimethylthiazol-5-yl)-3,4,6,7,8,9-hexahydroimidazo[1,2-a:5,4-c′]dipyridin-2(1H)-yl)-2-oxoethoxy)pyridin-2-yl)methanesulfonamide] displayed a half-maximal inhibitory concentration (IC50) of 0.012 µM.

`Cc1nc(C)c(C2c3c(nc4n3CCCC4)CCN2C(=O)COc2ccc(C(=O)N(C)C3CC3)nc2Cl)s1` (centres unmarked) [Example 1.10.2, 6-chloro-N-cyclopropyl-5-(2-(1-(2,4-dimethylthiazol-5-yl)-3,4,6,7,8,9-hexahydroimidazo[1,2-a:5,4-c′]dipyridin-2(1H)-yl)-2-oxoethoxy)-N-methylpicolinamide] returned an IC50 of 0.082 µM.

In turn, `Cc1nc(C)c(C2c3c(nc4n3CCCC4)CCN2C(=O)COc2ccc(-c3ncco3)nc2Cl)s1` (centres unmarked) [Example 1.10.3, 2-((2-chloro-6-(oxazol-2-yl)pyridin-3-yl)oxy)-1-(1-(2,4-dimethylthiazol-5-yl)-3,4,6,7,8,9-hexahydroimi-dazo[1,2-a:5,4-c′]dipyridin-2(1H)-yl)ethanone] returned an IC50 of 0.016 µM.

In the case of `CNC(=O)c1ccc(OCC(=O)N2CCc3nc4n(c3C2c2sc(C)nc2C)CCCC4)c(Cl)n1` (centres unmarked) [Example 1.10.4, 6-chloro-5-(2-(1-(2,4-dimethylthiazol-5-yl)-3,4,6,7,8,9-hexahydroimidazo[1,2-a:5,4-c′]dipyridin-2(1H)-yl)-2-oxoethoxy)-N-methylpicolinamide], the IC50 turned out to be 0.036 µM.

As for `Cc1nc(C)c(C2c3c(nc4n3CCCC4)CCN2C(=O)COc2ccc(C(=O)N(C)C)nc2Cl)s1` (centres unmarked) [Example 1.10.5, 6-chloro-5-(2-(1-(2,4-dimethylthiazol-5-yl)-3,4,6,7,8,9-hexahydroimidazo[1,2-a:5,4-c′]dipyridin-2(1H)-yl)-2-oxoethoxy)-N,N-dimethylpicolinamide], the IC50 stood at 0.085 µM.

As to `Cc1nc(C)c(C2c3c(nc4n3CCCC4)CCN2C(=O)COc2ccc(C#N)nc2Cl)s1` (centres unmarked) [Example 1.10.6, 6-chloro-5-(2-(1-(2,4-dimethylthiazol-5-yl)-3,4,6,7,8,9-hexahydroimidazo[1,2-a:5,4-c′]dipyridin-2(1H)-yl)-2-oxoethoxy)picolinonitrile], the midpoint of inhibition, the IC50, lay at 0.077 µM.

Take `Cc1nc(C)c(C2c3c(nc4n3CCCC4)CCN2C(=O)COc2ccc(C(F)(F)F)nc2Cl)s1` (centres unmarked) [Example 1.10.7, 2-((2-chloro-6-(trifluoromethyl)pyridin-3-yl)oxy)-1-(1-(2,4-dimethylthiazol-5-yl)-3,4,6,7,8,9-hexahydroimi-dazo[1,2-a:5,4-c′]dipyridin-2(1H)-yl)ethanone]: the IC50 is 0.177 µM.

As for `Cc1nc(C)c(C2c3c(nc4n3CCCC4)CCN2C(=O)COc2ccc(C3CC3)nc2Cl)s1` (centres unmarked) [Example 1.10.8, 2-((2-chloro-6-cyclopropylpyridin-3-yl)oxy)-1-(1-(2,4-dimethylthiazol-5-yl)-3,4,6,7,8,9-hexahydroimi-dazo[1,2-a:5,4-c′]dipyridin-2(1H)-yl)ethanone], the IC50 is 0.033 µM. This IC50 is about 5.4-fold lower than that of the compound before.

Regarding `Cc1nc(C)c(C2c3c(nc4n3CCCC4)CCN2C(=O)COc2ccc(N3CCN(C)CC3)nc2Cl)s1` (centres unmarked) [Example 1.10.9, 2-((2-chloro-6-(4-methylpiperazin-1-yl)pyridin-3-yl)oxy)-1-(1-(2,4-dimethylthiazol-5-yl)-3,4,6,7,8,9-hexahydroimidazo[1,2-a:5,4-c′]dipyridin-2(1H)-yl)ethanone], the IC50 amounted to 0.017 µM.

In the case of `Cc1nc(C)c(C2c3c(nc4n3CCCC4)CCN2C(=O)COc2ccc(C#N)cc2Cl)s1` (centres unmarked) [Example 1.10.10, 3-chloro-4-(2-(1-(2,4-dimethylthiazol-5-yl)-3,4,6,7,8,9-hexahydroimidazo[1,2-a:5,4-c′]dipyridin-2(1H)-yl)-2-oxoethoxy)benzonitrile], it took 0.207 µM to reach half-maximal inhibition (IC50).

For `Cc1nc(C)c(C2c3c(nc4n3CCCC4)CCN2C(=O)COc2ccc(C(F)(F)F)cc2Cl)s1` (centres unmarked) [Example 1.10.11, 2-(2-chloro-4-(trifluoromethyl)phenoxy)-1-(1-(2,4-dimethylthiazol-5-yl)-3,4,6,7,8,9-hexahydroimi-dazo[1,2-a:5,4-c′]dipyridin-2(1H)-yl)ethanone], 0.132 µM corresponded to half-maximal inhibition (IC50). This IC50 lies about 1.6-fold lower than the previous one.

`Cc1nc(C)c(C2c3c(nc4n3CCCC4)CCN2C(=O)COc2ccc(N(C)S(C)(=O)=O)nc2Cl)s1` (centres unmarked) [Example 1.10.12, N-(6-chloro-5-(2-(1-(2,4-dimethylthiazol-5-yl)-3,4,6,7,8,9-hexahydroimidazo[1,2-a:5,4-c′]dipyridin-2(1H)-yl)-2-oxoethoxy)pyridin-2-yl)-N-methylmethanesulfonamide]: half-maximal inhibition (IC50) required 0.02 µM.

In the case of `CCc1nc(NS(C)(=O)=O)ccc1OCC(=O)N1CCc2nc3n(c2C1c1sc(C)nc1C)CCCC3` (centres unmarked) [Example 1.10.13, N-(5-(2-(1-(2,4-dimethylthiazol-5-yl)-3,4,6,7,8,9-hexahydroimidazo[1,2-a:5,4-c′]dipyridin-2(1H)-yl)-2-oxoethoxy)-6-ethylpyridin-2-yl)methanesulfonamide], the IC50 was 0.008 µM.

`Cc1nc(C)c(C2c3c(nc4n3CCCC4)CCN2C(=O)COc2ccc(N3CCCS3(=O)=O)nc2Cl)s1` (centres unmarked) [Example 1.10.14, 2-((2-chloro-6-(1,1-dioxidoisothiazolidin-2-yl)pyridin-3-yl)oxy)-1-(1-(2,4-dimethylthiazol-5-yl)-3,4,6,7,8,9-hexahydroimidazo[1,2-a:5,4-c′]dipyridin-2(1H)-yl)ethanone] registered an IC50 of 0.014 µM.

Compound `CCc1nc(C(=O)NC2CC2)ccc1OCC(=O)N1CCc2nc3n(c2C1c1sc(C)nc1C)CCCC3` (centres unmarked) [Example 1.10.15, N-cyclopropyl-5-(2-(1-(2,4-dimethylthiazol-5-yl)-3,4,6,7,8,9-hexahydroimidazo[1,2-a:5,4-c′]dipyridin-2(1H)-yl)-2-oxoethoxy)-6-ethylpicolinamide] returned an IC50 of 0.008 µM.

On to `CCc1nc(NS(C)(=O)=O)ccc1OCC(=O)N1CCc2nc3n(c2[C@@H]1c1sc(C)nc1C)CCCC3` [Example 1.10.16, (R)-N-(5-(2-(1-(2,4-dimethylthiazol-5-yl)-3,4,6,7,8,9-hexahydroimidazo[1,2-a:5,4-c′]dipyridin-2(1H)-yl)-2-oxoethoxy)-6-ethylpyridin-2-yl)methanesulfonamide], for which half-maximal inhibition (IC50) required 0.006 µM.

For the compound `CCc1nc(C(=O)NC2CC2)ccc1OCC(=O)N1CCc2nc3n(c2[C@@H]1c1sc(C)nc1C)CCCC3` [Example 1.10.17, (R)-N-cyclopropyl-5-(2-(1-(2,4-dimethylthiazol-5-yl)-3,4,6,7,8,9-hexahydroimidazo[1,2-a:5,4-c′]dipyridin-2(1H)-yl)-2-oxoethoxy)-6-ethylpicolinamide], it took 0.005 µM to reach half-maximal inhibition (IC50).

Consider `CCc1nc(NS(C)(=O)=O)ncc1OCC(=O)N1CCc2nc3n(c2C1c1sc(C)nc1C)CCCC3` (centres unmarked) [Example 1.10.18, N-(5-(2-(1-(2,4-dimethylthiazol-5-yl)-3,4,6,7,8,9-hexahydroimidazo[1,2-a:5,4-c′]dipyridin-2(1H)-yl)-2-oxoethoxy)-4-ethylpyrimidin-2-yl)methanesulfonamide], for which the IC50 was 0.121 µM.

`CCc1nc(N2CCCS2(=O)=O)ccc1OCC(=O)N1CCc2nc3n(c2C1c1sc(C)nc1C)CCCC3` (centres unmarked) [Example 1.10.19, 1-(1-(2,4-dimethylthiazol-5-yl)-3,4,6,7,8,9-hexahydroimidazo[1,2-a:5,4-c′]dipyridin-2(1H)-yl)-2-((6-(1,1-dioxidoisothiazolidin-2-yl)-2-ethylpyridin-3-yl)oxy)ethan-1-one] returned an IC50 of 0.011 µM.

The compound `CCc1nc(C)c(C2c3c(nc4n3CCCC4)CCN2C(=O)COc2ccc(NS(C)(=O)=O)nc2Cl)s1` (centres unmarked) [Example 1.11.1, N-(6-chloro-5-(2-(1-(2-ethyl-4-methylthiazol-5-yl)-3,4,6,7,8,9-hexahydroimidazo[1,2-a:5,4-c′]dipyridin-2(1H)-yl)-2-oxoethoxy)pyridin-2-yl)methanesulfonamide] showed an IC50 of 0.049 µM.
